{"source": "paper PMC3816012", "about": "(Structure (London, England : 1993), 2013)", "molecular_target": "IcmR-IcmQ (Legionella pneumophila, UniProt O54635)", "data": [{"smiles": "NC(=O)c1ccc[n+]([C@@H]2O[C@H](COP(=O)(O)OP(=O)(O)OC[C@H]3O[C@@H](n4cnc5c(N)ncnc54)[C@H](O)[C@@H]3O)[C@@H](O)[C@H]2O)c1", "note": "[NAD+]", "values": [{"measurement": "filter binding assay, 32P-labelled NAD+", "value": "A similar binding profile was observed for wild type IcmR-IcmQ complexes."}]}]}
